Laboratory results reported in patent publication US8735569B2, “Nucleoside phosphoramidates” (Gilead Pharmasset LLC, priority 2009, dated 2014).
≈ marks a conversion by molar mass, not a printed value.

Key:
[1] = Thermodynamic aqueous solubility; format: physicochemical; conditions: for pH of Unfiltered mixture: aqueous suspension after 24 hours at 25° C.; for solubility at 24 h / Solubility: water; for solubility at 24 h: 25 °C, thermodynamic from solid, summary of batch characterization (Table 16), read-out: Aq Solubility; for Solubility: equilibrated at 25° C. for 24 hours, HPLC quantitation
Procedure: Aqueous solubility was determined by suspending a sufficient amount of compound in water to give a maximum final concentration of >10 mg·ml^−1 of the parent free-form of the compound. The suspension was equilibrated at 25° C. for 24 hours then the pH was measured. The suspension was then filtered through a glass fiber C filter into a 96 well plate. The filtrate was then diluted by a factor of 101. Quantitation was by HPLC with reference to a standard solution of approximately 0.1 mg·ml^−1 in DMSO. Different volumes of the standard, diluted and undiluted sample solutions were injected. The solubility was calculated using the peak areas determined by integration of the peak found at the same retention time as the principal peak in the standard injection.
Analysis was performed under the above-noted conditions on an Agilent HP1100 series system equipped with a diode array detector and using ChemStation software vB.02.01-SR1.

[2] = Stability at elevated temperatures and relative humidity; format: physicochemical
Procedure: A sample of RP-4 was stored in a humidity chamber at 40° C. and 75% relative humidity for one week, and the sample was reanalyzed by XRPD. […] This should be contrasted to a sample of 4, which deliquesced within about 16 hours upon storage at 40° C. and 75% relative humidity. Indeed, an illustration of the deliquescent nature of 4 is illustrated by the following. A sample of 4 was passed through a 250 μm sieve then samples were stored at 40° C./75% RH and 25° C./53% relative humidity and visual observations were taken at regular intervals.
Upon storage at 40° C. and 75% relative humidity a sample of SP-4 deliquesced inside 16 hours. For instance, a sample of SP-4 was ground with a pestle and mortar, and then successively passed through 500 and 250 μm sieves to yield the sample as a fine powder. Samples of this material were stored at 40° C. and 75% relative humidity and 25° C. and 53% RH and visual observations were taken at regular intervals.

[3] = Gravimetric vapour sorption (GVS); format: physicochemical; conditions: 25° C.
Procedure: Sorption isotherms were obtained using a SMS DVS Intrinsic moisture sorption analyzer, controlled by SMS Analysis Suite software. The sample temperature was maintained at 25° C. by the instrument controls. The humidity was controlled by mixing streams of dry and wet nitrogen, with a total flow rate of 200 ml·min^−1. The relative humidity was measured by a calibrated Rotronic probe (dynamic range of 1.0-100% RH), located near the sample. The weight change, (mass relaxation) of the sample as a function of % RH was constantly monitored by the microbalance (accuracy ±0.005 mg).
Typically 5-20 mg of sample was placed in a tared mesh stainless steel basket under ambient conditions. The sample was loaded and unloaded at 40% RH and 25° C. (typical room conditions). A moisture sorption isotherm was performed as outlined below (2 scans giving 1 complete cycle). The standard isotherm was performed at 25° C. at 10% RH intervals over a 0.5-90% RH range.
The sample was recovered after completion of the isotherm and re-analyzed by XRPD.
A sample of SP-4 was ground with a pestle and mortar, and then successively passed through 500 and 250 μm sieves to yield the sample as a fine powder that was then analyzed using a modified single cycle method. The sample was taken from 40% RH (approximately ambient) to 60% RH, instead of 90% for the standard method, and then cycled to 0% and back to 40% RH.

[4] = tested on: hepatitis C virus, genotypes 1-4; experiment: Genotype coverage
HCV replication = experiment: HCV replicon assay (firefly luciferase reporter); format: cell-based, hepatitis C virus; conditions: replicon containing cells, 4 days incubation, Bright-Glo firefly luciferase reporter
Procedure: Replicon containing cells were seeded at either 3,000 cells/well (50 μL) in 96-well white/opaque plates, or 1,500 cells/well (25 μL) in 384-well white/opaque plates. 50 μL of 2× compound were added in the 96 well plate or 25 μL of 2× compound were added in the 384 well plate. The plates were incubated at 37° C. in a humidified 5% CO2 atmosphere for 4 days. After incubation, Bright-Glo reagent (50 μL for 96-well plate, or 25 μL for 384-well plate) was added to measure the firefly luciferase reporter for HCV replication. Percent inhibition was calculated against the no drug control.

[5] = Storage stability of crystalline form in a sealed container; format: physicochemical
Excerpt: First, by allowing fine crystals of Form 1 to be exposed to atmospheric humidity for several days, a monohydrate of Form 1 is produced with an appearance of a solidified gum. After grinding the monohydrate solid to a fine powder, the XRPD pattern remains consistent with Form 1. Upon standing in an open vessel for 6-10 weeks, the ground material slowly changes to Form 6 as an anhydrous solid. Form 1 is stable for at least 2 years in a sealed container.

[6] = summary of batch characterization (Table 16)

| Compound | pH of Unfiltered mixture [1] | solubility at 24 h [1] [µg/mL] | Solubility [1] [mg. m1^−1] | change in solid form by XRPD after storage ([2]; 40° C. and 75% relative humidity for one week) | 40° C./75% RH (stability summary) [2, 6] | hygroscopicity by GVS analysis [3] | reversible uptake of water ([3]; from 0 to 90% relative humidity) | activity against hepatitis C virus, genotypes 1-4 (broad genotype coverage) [4] | HCV Replicon Activity (HCV replication) [µM] | time to deliquescence upon storage ([2]; 40° C. and 75% relative humidity) [h] | 25° C./53% RH (stability summary) [2, 6] | stable in a sealed container [5] | visual observation (stability to elevated relative humidity) ([2]; 40° C./75% RH, t = 4.5 h) |
| --- | --- | --- | --- | --- | --- | --- | --- | --- | --- | --- | --- | --- | --- |
| CC(C)OC(=O)[C@H](C)N[P@@](=O)(OC[C@H]1O[C@@H](n2ccc(=O)[nH]c2=O)[C@](C)(F)[C@@H]1O)Oc1ccccc1 (single isomer, unassigned) [RP-4] | 7.12 | 1580 (≈ 2.98 mM) | 1.58 | no change in solid form was observed | No form change | non-hygroscopic | approximately 0.2 wt % | active | 2.87 | – | – | – | – |
| CC(C)OC(=O)[C@H](C)NP(=O)(OC[C@H]1O[C@@H](n2ccc(=O)[nH]c2=O)[C@](C)(F)[C@@H]1O)Oc1ccccc1 (stereo partly drawn) [Compound 4, (S)-2-{[(1R,4R,5R)-5-(2,4-Dioxo-3,4-dihydro-2H-pyrimidin-1-yl)-4-(R)-fluoro-3-hydroxy-4-methyl-tetrahydro-furan-2-ylmethoxy]-phenoxy-phosphorylamino}-propionic acid isopropyl ester] | 7.03 | 6110 (≈ 11.5 mM) | 6.11 | – | – | – | – | – | 0.58 | ≤ 16 | Deliquescence | – | – |
| CC(C)OC(=O)[C@H](C)N[P@](=O)(OC[C@H]1O[C@@H](n2ccc(=O)[nH]c2=O)[C@](C)(F)[C@@H]1O)Oc1ccccc1 [Form 1] | – | – | – | – | – | – | – | – | – | – | – | at least 2 years | – |
| CC(C)OC(=O)[C@H](C)N[P@](=O)(OC[C@H]1O[C@@H](n2ccc(=O)[nH]c2=O)[C@](C)(F)[C@@H]1O)Oc1ccccc1 [SP-4, (S)-Isopropyl 2-((S)-(((2R,3R,4R,5R)-5-(2,4-dioxo-3,4-dihydropyrimidin-1(2H)-yl)-4-fluoro-3-hydroxy-4-methyltetrahydrofuran-2-yl)methoxy)(phenoxy)phosphorylamino)propanoate] | – | 5650 (≈ 10.7 mM) | 5.65 | – | – | – | – | active | 0.13 | – | No form change | – | Deliquescence |
